Test system: human bronchial epithelial cells, CFTR corrector, plate reader
Test: CFTR ΔF508 corrector activity in bronchial cells, dose response, human bronchial epithelial cells, plate reader, cherry-pick, two tests (AID 743267)
[1] = measured here: test 2 replicate run
[2] = measured here: test 1 replicate run

SMILES | AC50 [1] | AC50 [2]
COc1ccc2noc3c2c1C(=O)c1ccccc1-3 | 19.1 µM | 
COc1ccc(-c2csc(NC(=S)NC(=O)/C=C/c3ccco3)n2)cc1OC | 2.19 µM | 
C[C@@H]1CN([C@H](C)CO)S(=O)(=O)c2ccc(C#CC3CC3)cc2O[C@H]1CN(C)Cc1ccccn1 |  | 11.8 µM
COc1ccc(OC)c(Nc2nc(-c3sc(NC(=O)C(C)(C)C)nc3C)cs2)c1 | 2.78 µM | 
COc1cc(-c2noc(C)c2C#Cc2ccccn2)cc(OC)c1OC | 0.747 µM | 
N#C/C(=C(/O)c1ccc(Br)s1)c1nc2ccccc2[nH]1 | 3.88 µM | 
O=C(c1cccc(S(=O)(=O)N2CCOCC2)c1)N1CCCC(C(F)(F)F)C1 (stereo not given) | 39.2 µM | 
COc1cccc(/C=N/NC(=O)C(=O)Nc2ccccc2OC(F)(F)C(F)F)c1O | 9.39 µM | 
COc1ccc(C)cc1NC(=O)CNC(c1ccccc1)c1ccc(C)cc1 (stereo not given) | 2.03 µM | 
O=C(NCCCN1CCOCC1)c1sc2cc(Cl)ccc2c1Cl | 1.76 µM | 
Cc1cc(C(=O)N/N=C/c2ccc(N(C)C)cc2)c2ccccc2n1 | 5.44 µM | 
COc1cc(/C=C/C(=O)c2ccc3c(c2)OCO3)cc(Cl)c1O | 15.6 µM | 
COc1nc(-c2ccccc2)cc(-c2ccc3c(c2)OCO3)c1C#N | 3.66 µM | 
C[C@@H](N)Cc1cnc[nH]1 | 20.1 µM | 
CC1(C)OC(c2ccccc2)=C/C(=C/C=C2C(=O)NC(=O)NC2=O)O1 | 24.8 µM | 
Cc1ccc(S(=O)(=O)N2C[C@H]3[C@H]4C(=O)N(C)C(=O)[C@H]4CC(=O)[C@H]3[C@@H]2c2ccccc2F)cc1 | 37.1 µM | 
Cc1nnc(NC(=O)CSc2nccn2-c2cccc(C)c2C)s1 | 7.08 µM | 
Cc1cnc(NC(=O)c2ccc3c(c2)OCCO3)s1 | 4.71 µM | 
CCOC(=O)C1CCCN(c2ccc([N+](=O)[O-])c3nonc23)C1 (stereo not given) | 20.7 µM | 
CCOC1=C2CN(S(=O)(=O)c3ccc(C)cc3)CC[C@@H]2N(S(=O)(=O)c2ccc(C)cc2)[C@H](c2ccccc2)C1 | 4.47 µM | 
COc1ccc(C(=O)c2ccc(N(C)C)cc2)c(OC)c1 | 3.82 µM | 
O=Nc1ccc(O)c2ncccc12 | 3.57 µM | 
COc1ccc([N+](=O)[O-])cc1Nc1c2ccccc2nc2ccccc12 | 2.62 µM | 
CC[C@H]1CN2CCC1C[C@H]2[C@H](O)c1ccnc2ccc(OC)cc12 (stereo not given in full) | 12.9 µM | 
Cn1c(CC(=O)NN)c(Sc2ccccc2)c2ccccc21 | > 50 µM | 
COc1ccc(S(=O)(=O)Nc2cccc3ccc(O)cc23)cc1 | 6.82 µM | 
COc1ccccc1Nc1c2c(nc3ccccc13)CCC2 | 6.89 µM | 
Clc1cccc(-c2ccc(C=Nc3ccc(N4CCOCC4)cc3)o2)c1Cl | > 50 µM | 

SMILES | AC50 [1] | AC50 [2]
Cc1ccc(COc2ccccc2-c2cc(C(=O)N/N=C/c3cccnc3)[nH]n2)cc1 | > 50 µM | 
COC(=O)/C=C/c1ccccc1S(=O)(=O)N(Cc1ccccc1)Cc1ccco1 | 3.04 µM | 
COC(=O)COc1cccc2c(=O)n(CC(=O)NCc3ccccc3)ccc12 | 5.25 µM | 
COc1ccc(OC)c(-c2cnc(OC(C)(C)C)nc2OC(C)(C)C)c1 | 13.9 µM | 
CCOC(=O)/C(=C/C=C1\Sc2cc(C)c(C)cc2N1CC)C(C)=O | 13.6 µM | 
O=c1c2ccccc2sc2c(CO)ccc(NCCN3CCCCC3)c12 | 5.18 µM | 
COc1ccccc1Nc1nc(-c2sc(NC(=O)C(C)(C)C)nc2C)cs1 | 3.84 µM | 
Clc1ccc(Nc2ccc3ccccc3n2)cc1 | 8.45 µM | 
CCN(CC)CCC(=O)Nc1cccc2c1C(=O)c1ccccc1C2=O | 2.98 µM | 
N#C[C@@H]1[C@H](c2ccc(-c3cccc(F)c3)cc2)[C@H](CO)N1C(=O)NC1CCCC1 |  | > 50 µM
COC(=O)c1cn(C(=O)c2ccc(C)cc2C)c2ccccc12 | 7.53 µM | 
O=c1[nH]c(/C=C/c2ccccc2F)nc2ccccc12 | 2.69 µM | 
O=C(NCCN1C(=O)S/C(=C\c2ccc(OC(F)F)cc2)C1=O)c1cnccn1 | 1.85 µM | 
Cc1cccc(NC(=S)N/N=C/c2cccc(O)c2)c1C | 3.86 µM | 
COc1ccccc1S(=O)(=O)N1CC[C@@H]2[C@@H](CO)N(C)c3ccc(-c4ccc(F)cc4)cc3[C@@H]21 |  | 15 µM
COc1ccccc1C(=O)Nc1ccc2c(c1)nc(CCNC(=O)c1ccco1)n2C | 5.48 µM | 
COc1ccc(C(=O)c2cc(OC)c(OC)c(OC)c2)cc1OC | 2.72 µM | 
Cc1cc(Br)cc(/C=N/NC(=O)c2ccc3c(c2)OCO3)c1O | 6.69 µM | 
Cc1c(OCC(=O)NCCN2CCOCC2)ccc2c3c(c(=O)oc12)CCC3 | > 50 µM | 
COc1cc(/C=C2/SC(=S)N(Cc3ccccc3)C2=O)cc(Cl)c1O | 12.1 µM | 
C/C(=N\NC(=O)c1c(Cl)c(C)nn1C)c1ccc(NC(=O)C2CCC2)cc1 | 1.1 µM | 
Cc1cc2c(cc1S(=O)(=O)Nc1ccc(F)cc1)n(C)c(=O)c(=O)n2C | 43.2 µM | 
COc1ccc(C(=O)c2cc([N+](=O)[O-])ccc2N2CCN(C)CC2)cc1 | 3.74 µM | 
COc1ccc(CNCC(=O)Nc2ccccc2-n2cccc2)cc1 | 6.21 µM | 
O=C1CN(S(=O)(=O)Cc2ccccc2)C[C@@H]2[C@@H](c3ccc(C#Cc4cccc(F)c4)cc3)[C@H](CO)N12 |  | 16 µM
Cc1cc(C(=O)N2CC=C(c3ccccc3)CC2)c2ccccc2n1 | 0.66 µM | 
CCN(CC)c1ccc(/C=C(/C#N)c2nc3ccc(C)cc3[nH]2)c(OC(C)C)c1 | 9.34 µM | 
